Structures are written as SMILES.

Common to all, as to assay: SILAC LC-MS ATP acyl phosphate probe competition, native kinases in HEK293T
Holding throughout (format): binding

Experiment [1] has as its target T1, CDK2 (Cell division protein kinase 2) (Homo sapiens, UniProt P24941).
T1 construct: measured against >50 native kinases quantified in HEK293T soluble proteomes; endogenous in cells; host or cells: HEK293T soluble proteome
The note with it: site Lys2; ATP 1 mM; Ketanserin, Ritanserin 100 μM; RF001 1 mM. How it is done:
(§1) Proteomes were diluted to 2 mg/ml in kinase buffer. The light and heavy proteomes (0.5 mg, 250 μL total reaction volume) were pre-treated with vehicle or compound, respectively (5 μL, DMSO (light) or 50× stock in DMSO (heavy)), mixed gently, and incubated at 25° C. for 30 min. […] After incubation, matched light and heavy proteomes were transferred and mixed in a 1:1 ratio in a two-dram vial containing 4:1:3 MeOH/CHCl3/H2O (2 mL MeOH, 500 AL CHCl3, 1.5 mL H2O) for extraction of proteins to remove excess probe, quickly vortexed, and centrifuged at 1,400×g for 3 min to pellet protein. Organic and aqueous layers were removed using a Pasteur pipette, and the protein pellet was transferred to a screw-top tube in 600 μL MeOH. A second extraction was performed by adding CHCl3 (150 μL) and H2O (600 μL) to each sample, vortexed, and centrifuged at 1,400×g for 3 min to pellet protein. Organic and aqueous layers were removed by pipetting. MeOH added to pellet (600 μL) and pellets were re-suspended by sonication (3×1 sec pulse, 20% amplitude) for a final extraction. Samples were then centrifuged at 17,000×g for 5 min to pellet protein and MeOH was removed by pipetting. The pellets were re-suspended in 10 M urea/25 mM ammonium bicarbonate ([…]), brought to a final volume of 1 mL with 25 mM ammonium bicarbonate, reduced with 10 mM DTT for 15 min at 65° C. allowed to cool, and then alkylated with 40 mM iodoacetamide for 30 min at 25° C. in the dark. To desalt the samples, each was transferred to a two-dram glass vial, and to the vial 4:1:2 MeOH/CHCl3/H2O (2 mL MeOH, 500 AL CHCl3, 1 mL H2O) was added. The vials were vortexed quickly, spun at 1.400×g for 3 min to pellet protein, and aqueous and organic layers were removed using a Pasteur pipette. The resulting protein pellet was transferred to a screw-top tube in 600 μL MeOH, and then CHCl3 (150 μL) and HO (600 μL) were added to extract protein a second time. The samples were vortexed quickly, centrifuged at 1,400×g to pellet protein, and the aqueous and organic layers were removed by pipetting. Resulting protein pellet was suspended in MeOH (600 μL) via sonication (3×1 sec pulse, 20% amplitude), centrifuged at 17,000×g for 5 min to pellet protein, and MeOH removed by pipetting. Protein pellets were then re-suspended in 25 mM ammonium bicarbonate (500 μL) and digested with 7.5 μg Trypsin/Lys-C(Promega, 15 μL, 0.5 μg/μL) for 3 h at 37° C. Avidin-agarose beads (Thermo Scientific Pierce, 100 AL aliquot per sample) were washed three times by adding 10 mL DPBS, centrifuged at 1,400×g for 1 min, and decanting. This wash step was repeated for a total of 3 times. Digested protein samples were mixed with washed avidin beads (100 μL) and brought to a volume of 5.5 mL with DPBS in a 15 mL conical and rotated for 1 h to enrich samples for the covalent desthiobiotin modification. The beads were washed with 25 mM ammonium bicarbonate (3× with 10 mL, centrifuge at 1,400×g for 3 min, decant) and then H2O (3× with 10 mL, centrifuge at 1,400×g for 3 min, decant). Washed beads were then transferred to a low-bind microfuge tube, centrifuged at 1,400×g for 3 min, allowed to rest for 1 min to settle beads, and then excess H2O was removed carefully using a gel-loading pipette tip. To elute peptides, 100 μL of elution buffer (50% acetonitrile, ACN; 0.1% formic acid) was added to each sample and incubated for 3 min. Beads were spun down at 1.400×g for 3 min, allowed to rest for 1 min to settle beads, and then 75 μL of peptide-containing supernatant was removed carefully using a gel-loading pipette tip and transferred to a new low bind centrifuge tube. This step was repeated two more times with 75 μL of elution buffer and all eluent were collected into the same centrifuge tube (˜225 μL total). Peptides were dried on a speed vacuum, resulting peptide samples acidified in 5% (v/v) formic acid, and stored at −80° C. until analysis.
(§2) The peptide samples were analyzed by liquid chromatography-mass spectrometry. […]

For experiment [2], the target named is T2, CDK5 (Cell division protein kinase 5) (Homo sapiens, UniProt Q00535).
T2 construct: measured against >50 native kinases quantified in HEK293T soluble proteomes; endogenous in cells; host or cells: HEK293T soluble proteome
T2 sequence (Q00535 whole entry): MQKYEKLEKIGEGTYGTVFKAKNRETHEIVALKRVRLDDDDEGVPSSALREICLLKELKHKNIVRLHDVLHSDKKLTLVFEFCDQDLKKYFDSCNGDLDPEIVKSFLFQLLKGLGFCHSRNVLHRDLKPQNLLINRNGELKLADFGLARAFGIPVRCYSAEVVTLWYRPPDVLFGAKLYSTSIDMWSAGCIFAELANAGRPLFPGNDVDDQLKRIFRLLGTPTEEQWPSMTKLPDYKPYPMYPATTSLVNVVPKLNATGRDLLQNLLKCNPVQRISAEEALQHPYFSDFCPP
As to conditions: site Lys2; ATP 1 mM; Ketanserin, Ritanserin 100 μM; RF001 1 mM. How it is done: as §1, §2

For experiment [3], the target named is T3, KS6A1 (Ribosomal protein S6 kinase alpha 1) (Homo sapiens, UniProt Q15418).
T3 construct: measured against >50 native kinases quantified in HEK293T soluble proteomes; endogenous in cells; host or cells: HEK293T soluble proteome
T3 sequence (Q15418 whole entry): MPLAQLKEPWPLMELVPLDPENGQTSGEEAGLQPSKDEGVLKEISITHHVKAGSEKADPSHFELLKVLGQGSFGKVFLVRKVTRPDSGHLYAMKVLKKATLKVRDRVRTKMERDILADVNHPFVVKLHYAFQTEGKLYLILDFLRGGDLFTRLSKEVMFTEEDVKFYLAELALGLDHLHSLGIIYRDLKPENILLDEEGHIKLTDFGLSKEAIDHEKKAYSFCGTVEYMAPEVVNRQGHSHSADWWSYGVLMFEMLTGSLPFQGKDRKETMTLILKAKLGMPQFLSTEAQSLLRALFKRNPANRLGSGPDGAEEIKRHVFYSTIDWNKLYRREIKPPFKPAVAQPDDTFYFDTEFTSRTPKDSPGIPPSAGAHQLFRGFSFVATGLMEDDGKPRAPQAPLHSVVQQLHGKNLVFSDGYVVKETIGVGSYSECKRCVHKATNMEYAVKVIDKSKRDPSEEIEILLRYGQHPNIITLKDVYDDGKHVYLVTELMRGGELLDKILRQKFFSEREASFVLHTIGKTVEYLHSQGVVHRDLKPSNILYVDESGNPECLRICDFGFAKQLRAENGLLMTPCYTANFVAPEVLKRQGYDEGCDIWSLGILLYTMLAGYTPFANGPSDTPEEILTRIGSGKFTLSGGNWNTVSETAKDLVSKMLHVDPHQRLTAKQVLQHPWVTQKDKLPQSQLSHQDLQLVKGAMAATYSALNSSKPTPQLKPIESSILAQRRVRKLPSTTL
As to conditions: site ACT; ATP 1 mM; Ketanserin, Ritanserin 100 μM; RF001 1 mM. The protocol: as §1, §2

Experiment [4] has as its target T4, MP2K4 (Dual specificity mitogen-activated protein kinase kinase 4) (Homo sapiens, UniProt P45985).
T4 construct: Native kinases; endogenous in cells; host or cells: HEK293T soluble proteome
T4 sequence (P45985 1-399): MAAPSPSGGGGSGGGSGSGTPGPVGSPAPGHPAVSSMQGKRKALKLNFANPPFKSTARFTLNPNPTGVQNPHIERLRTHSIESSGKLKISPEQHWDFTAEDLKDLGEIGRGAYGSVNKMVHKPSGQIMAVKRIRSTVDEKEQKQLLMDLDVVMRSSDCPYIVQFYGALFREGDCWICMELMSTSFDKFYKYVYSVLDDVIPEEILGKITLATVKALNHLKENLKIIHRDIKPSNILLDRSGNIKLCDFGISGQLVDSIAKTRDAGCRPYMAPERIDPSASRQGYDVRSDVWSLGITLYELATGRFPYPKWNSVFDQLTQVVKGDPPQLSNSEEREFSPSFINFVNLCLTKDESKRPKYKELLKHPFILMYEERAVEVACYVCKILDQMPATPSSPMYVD
The note with it: site Lys2; ATP 1 mM; Ketanserin, Ritanserin 100 μM; RF001 1 mM. The protocol:
as §1, §2

The target of experiment [5] is T5, STK10 (Serine/threonine-protein kinase 10) (Homo sapiens, UniProt O94804).
T5 construct: Native kinases; endogenous in cells; host or cells: HEK293T soluble proteome
T5 sequence (O94804 whole entry): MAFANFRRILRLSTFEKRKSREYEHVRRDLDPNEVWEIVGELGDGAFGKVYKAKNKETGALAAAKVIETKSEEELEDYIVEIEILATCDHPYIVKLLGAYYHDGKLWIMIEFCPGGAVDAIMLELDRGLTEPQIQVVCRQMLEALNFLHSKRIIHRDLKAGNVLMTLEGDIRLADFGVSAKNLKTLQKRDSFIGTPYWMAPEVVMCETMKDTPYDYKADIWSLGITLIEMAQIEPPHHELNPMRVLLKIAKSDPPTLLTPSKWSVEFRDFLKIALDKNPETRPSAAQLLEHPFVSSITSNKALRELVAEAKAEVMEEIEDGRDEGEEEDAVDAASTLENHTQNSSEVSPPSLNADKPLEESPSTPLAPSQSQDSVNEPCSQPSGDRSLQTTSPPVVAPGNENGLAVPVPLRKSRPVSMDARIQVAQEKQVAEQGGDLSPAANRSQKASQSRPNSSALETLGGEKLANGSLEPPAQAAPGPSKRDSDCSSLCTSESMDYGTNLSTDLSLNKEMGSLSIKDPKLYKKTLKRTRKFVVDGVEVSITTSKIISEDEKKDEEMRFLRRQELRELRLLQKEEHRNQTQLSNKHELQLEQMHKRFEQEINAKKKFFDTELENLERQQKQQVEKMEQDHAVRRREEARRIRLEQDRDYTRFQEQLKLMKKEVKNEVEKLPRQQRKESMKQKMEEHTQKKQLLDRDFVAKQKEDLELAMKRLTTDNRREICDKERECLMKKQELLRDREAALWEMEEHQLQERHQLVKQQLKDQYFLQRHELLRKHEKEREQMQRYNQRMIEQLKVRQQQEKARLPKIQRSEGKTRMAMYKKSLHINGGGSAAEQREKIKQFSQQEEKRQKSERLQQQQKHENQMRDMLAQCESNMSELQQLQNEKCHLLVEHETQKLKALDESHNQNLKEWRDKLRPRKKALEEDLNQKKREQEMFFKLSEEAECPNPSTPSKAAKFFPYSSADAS
The note with it: site Lys2; ATP 1 mM; Ketanserin, Ritanserin 100 μM; RF001 1 mM. How it is done:
as §1, §2

For the molecule `O=C(c1ccc(F)cc1)C1CCN(CCn2c(=O)[nH]c3ccccc3c2=O)CC1` [Ketanserin], in experiment [1], the “SILAC ratio, CDK2 probe-modified peptide” value is reported as 1.6. For the same molecule, the “SILAC ratio, CDK5 probe-modified peptide” value in experiment [2] came out at 1.3. For the same molecule, the “SILAC ratio, KS6A1 probe-modified peptide” value in experiment [3] was 1.4. For the same molecule, in experiment [4], the “SILAC ratio, MP2K4 probe-modified peptide” value is recorded as 1.3. For the same molecule, in experiment [5], the “SILAC ratio, STK10 probe-modified peptide” value turned out to be 1.3.

Take `Fc1ccc(C(=C2CCNCC2)c2ccc(F)cc2)cc1` [RF001, 4-(Bis(4-fluorophenyl)methylene) piperidine]: the “SILAC ratio, CDK2 probe-modified peptide” value in experiment [1] came to 0.7. Also, the “SILAC ratio, CDK5 probe-modified peptide” value in experiment [2] is recorded as 1.1. In experiment [3], the “SILAC ratio, KS6A1 probe-modified peptide” value was 1.3. The “SILAC ratio, MP2K4 probe-modified peptide” value in experiment [4] was 0.9. In experiment [5], the “SILAC ratio, STK10 probe-modified peptide” value worked out at 1.1.

As to `Cc1nc2sccn2c(=O)c1CCN1CCC(=C(c2ccc(F)cc2)c2ccc(F)cc2)CC1` [Ritanserin], the “SILAC ratio, CDK2 probe-modified peptide” value in experiment [1] was 2.9. In experiment [2], the “SILAC ratio, CDK5 probe-modified peptide” value is reported as 1.9. In addition, the “SILAC ratio, KS6A1 probe-modified peptide” value in experiment [3] amounted to 2.1. Also, in experiment [4], the “SILAC ratio, MP2K4 probe-modified peptide” value came out at 1.6. Also, the “SILAC ratio, STK10 probe-modified peptide” value in experiment [5] amounted to 1.7.

Source of the values: US12643867B2, “Compositions and uses thereof” (University of Virginia Patent Foundation, priority 2017, dated 2026).
